Molecules are shown by their SMILES. pKi: −log10 of the molar value.

Data on three molecules can be found in ChEMBL document CHEMBL1125171, “Approaches to isozyme-specific inhibitors. 17. Attachment of a selectivity-inducing substituent to a multisubstrate adduct. Implications for facilitated design of potent, isozyme-selective inhibitors” (J Med Chem, 1990).

Experiment [1] is described as follows: Ratio of inhibitor constant for Met substrate site of methionine adenosyl transferase and ATP substrate site of M-2 variant methionine adenosyl transferase.
In experiment [2] the target is S-adenosylmethionine synthase isoform type-2 (Rattus norvegicus) (UniProt P18298). As to the kind of experiment: Inhibition constants against Met (L-methionine)P substrate site of M-T (Novikoff Ascitic Hepatoma form) variant of rat Methionine adenosyltransferase.
S-adenosylmethionine synthase isoform type-2 (Rattus norvegicus), sequence (P18298 whole entry, looked up, stated change not applied, canonical isoform): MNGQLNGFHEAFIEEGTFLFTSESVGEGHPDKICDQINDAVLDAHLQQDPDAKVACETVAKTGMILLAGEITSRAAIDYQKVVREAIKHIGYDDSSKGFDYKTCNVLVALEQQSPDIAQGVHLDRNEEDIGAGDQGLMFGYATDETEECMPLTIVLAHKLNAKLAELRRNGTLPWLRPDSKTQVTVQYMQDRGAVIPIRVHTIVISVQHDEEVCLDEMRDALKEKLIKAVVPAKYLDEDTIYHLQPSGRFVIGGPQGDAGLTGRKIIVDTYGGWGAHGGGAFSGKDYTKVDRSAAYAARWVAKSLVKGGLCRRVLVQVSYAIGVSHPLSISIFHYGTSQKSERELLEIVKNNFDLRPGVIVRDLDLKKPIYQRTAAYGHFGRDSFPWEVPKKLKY
The nature of experiment [3]: Ratio of inhibitor constant for ATP substrate site of methionine adenosyl transferase and ATP substrate site of M-T variant methionine adenosyl transferase.
The target in experiment [4] is S-adenosylmethionine synthase isoform type-2 (Rattus norvegicus) (UniProt P18298). Nature of the experiment: Inhibition constants against ATP substrate site of M-T (Novikoff Ascitic Hepatoma form) variant of rat Methionine adenosyltransferase.
Experiment [5] in a line: Ratio of inhibitor constant for ATP substrate site of methionine adenosyl transferase and ATP substrate site of M-2 variant methionine adenosyl transferase.
A short description of experiment [6]: Ratio of inhibitor constant for Met substrate site of methionine adenosyl transferase and ATP substrate site of M-T variant methionine adenosyl transferase.
Experiment [7] deals with S-adenosylmethionine synthase isoform type-2 (Rattus norvegicus) (UniProt P18298). Nature of the experiment: Inhibition constants with Met (L-methionine) substrate site of M-2 (kidney form) variant of rat Methionine adenosyltransferase.
For experiment [8] the target is unchanged. Nature of the experiment: Inhibition constants against ATP substrate site of M-2 (kidney form) variant of rat Methionine adenosyltransferase.

What is called pKi is −log10 of the Ki, conventionally taken in molar units. A low value points to a high Ki. With `CCCCSc1ncnc2c1ncn2[C@@H]1O[C@H]([C@H](CSCC[C@H](N)C(=O)O)OP(=O)(O)OP(=O)(O)NP(=O)(O)O)[C@@H](O)[C@H]1O`, the Ratio in experiment [1] came out at 1.7; in experiment [3], 1270; in experiment [5] it was 1170; in experiment [6], 22. Moreover, the negative-log Ki (pKi) is 6.13 in experiment [2], 6.96 in experiment [4], 5.54 in experiment [7] and 6.92 in experiment [8].
Consider `CCCCSc1ncnc2c1ncn2[C@@H]1O[C@H](COP(=O)(O)OP(=O)(O)OP(=O)(O)O)[C@@H](O)[C@H]1O`, for which the Ratio in experiment [3] amounted to 1.4; in experiment [5], 0.45. Moreover, the pKi in experiment [4] is 4.00; in experiment [8] it was 3.51.
For `Nc1ncnc2c1ncn2[C@@H]1O[C@H]([C@H](CSCCC(N)C(=O)O)OP(=O)(O)OP(=O)(O)NP(=O)(O)O)[C@@H](O)[C@H]1O` (stereo not given in full), the Ratio in experiment [1] was 7.7; in experiment [3], 670; in experiment [5], 1080; in experiment [6], 22. For the same molecule, the negative logarithm of the Ki (pKi) was 6.17 in experiment [2], 6.68 in experiment [4], 6.19 in experiment [7] and 6.89 in experiment [8].
